A word on the IC50: it is the concentration at which inhibition is half-maximal.

Molecules are shown by their SMILES. Read-outs that look alike come from different tables or passages of the source.

In the test the target is Recombinant human cathepsin S (CatS) (Homo sapiens, UniProt P25774). The test is described as follows: Recombinant human cathepsin S (CatS) inhibition assay, fluorogenic substrate Z-Valine-Valine-Arginine-AMC.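 Also: Baculovirus-expressed CatS in pH 5.0 sodium acetate buffer with DTT and NaCl, fluorescence read each minute over 20 min, inhibition derived from rate slope.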
Sequence of Recombinant human cathepsin S (CatS) (P25774 115-331): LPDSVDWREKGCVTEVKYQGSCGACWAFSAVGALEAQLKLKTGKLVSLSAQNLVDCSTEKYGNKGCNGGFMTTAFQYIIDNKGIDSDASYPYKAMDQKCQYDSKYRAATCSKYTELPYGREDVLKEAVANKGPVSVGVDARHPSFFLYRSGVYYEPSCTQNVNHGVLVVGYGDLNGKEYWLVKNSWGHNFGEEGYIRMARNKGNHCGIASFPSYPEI

For `NC(=O)C(=O)N1CCc2c(c(-c3ccc(Cl)c(C#Cc4ccc(Cl)c(CN5CCOCC5)c4)c3)nn2CCCN2CCCCC2)C1` [Example 601, 2-[3-(4-Chloro-3-{[4-chloro-3-(morpholin-4-ylmethyl)phenyl]ethynyl}phenyl)-1-(3-piperidin-1-ylpropyl)-1,4,6,7-tetrahydro-5H-pyrazolo[4,3-c]pyridin-5-yl]-2-oxoacetamide], the IC50 was found to be 0.03 µM.

With `CC(C)CN1CCc2cc(C#Cc3cc(-c4nn(CCCN5CCOCC5)c5c4CN(S(C)(=O)=O)CC5)ccc3Cl)ccc2C1` [Example 523, 6-({2-Chloro-5-[5-(methylsulfonyl)-1-(3-morpholin-4-ylpropyl)-4,5,6,7-tetrahydro-1H-pyrazolo[4,3-c]pyridin-3-yl]phenyl}ethynyl)-2-(2-methylpropyl)-1,2,3,4-tetrahydroisoquinoline], the IC50 (CatS IC50) came out at 0.53 µM.

For the compound `NC(=O)N1CCc2c(c(-c3ccc(Cl)c(C#Cc4cccc(CNCc5ccc(F)cc5)c4)c3)nn2CCCN2CCSCC2)C1` [Example 517, 3-(4-Chloro-3-{[3-({[(4-fluorophenyl)methyl]amino}methyl)phenyl]ethynyl}phenyl)-1-(3-thiomorpholin-4-ylpropyl)-1,4,6,7-tetrahydro-5H-pyrazolo[4,3-c]pyridine-5-carboxamide], for the setting “CatS IC50”, the IC50 is 0.19 µM.

Regarding `NC(=O)N1CCc2c(c(-c3ccc(Cl)c(C#Cc4ccc(C(=O)NC[C@@H]5CCCN5)cc4)c3)nn2CCCN2CCSCC2)C1` [Example 609, 3-{4-Chloro-3-[(4-{[(2S)-pyrrolidin-2-ylmethyl]carbamoyl}phenyl)ethynyl]phenyl}-1-(3-thiomorpholin-4-ylpropyl)-1,4,6,7-tetrahydro-5H-pyrazolo[4,3-c]pyridine-5-carboxamide], the IC50 worked out at 0.07 µM.

For the compound `CC(=O)Nc1ccc(C#Cc2cc(-c3nn(CCCN4CCOCC4)c4c3CN(S(C)(=O)=O)CC4)ccc2Cl)cc1` [Example 66, N-(4-{2-Chloro-5-[5-methanesulfonyl-1-(3-morpholin-4-yl-propyl)-4,5,6,7-tetrahydro-1H-pyrazolo[4,3-c]pyridin-3-yl]-phenylethynyl}-phenyl)-acetamide], the IC50 turned out to be 0.25 µM.

In the case of `NC(=O)N1CCc2c(c(-c3ccc(Cl)c(C#Cc4ccc(Cl)c(CNC5CCCC5)c4)c3)nn2CCCN2CCSCC2)C1` [Example 599, 3-[4-Chloro-3-({4-chloro-3-[(cyclopentylamino)methyl]phenyl}ethynyl)phenyl]-1-(3-thiomorpholin-4-ylpropyl)-1,4,6,7-tetrahydro-5H-pyrazolo[4,3-c]pyridine-5-carboxamide], the IC50 was found to be 0.03 µM.

Regarding `CS(=O)(=O)N1CCc2c(c(-c3ccc(Cl)c(C#Cc4ccc(CNCc5ccc(Cl)cc5)cc4)c3)nn2CCCN2CCC(C(N)=O)CC2)C1` [Example 350, 1-{3-[3-(4-Chloro-3-{[4-({[(4-chlorophenyl)methyl]amino}methyl)phenyl]ethynyl}phenyl)-5-(methylsulfonyl)-4,5,6,7-tetrahydro-1H-pyrazolo[4,3-c]pyridin-1-yl]propyl}piperidine-4-carboxamide], the IC50 worked out at 0.04 µM.

As for `CS(=O)(=O)N1CCc2c(c(-c3ccc(Cl)c(C#Cc4ccccc4)c3)nn2CCCN2CCOCC2)C1` [Example 39, 3-(4-Chloro-3-phenylethynyl-phenyl)-5-methanesulfonyl-1-(3-morpholin-4-yl-propyl)-4,5,6,7-tetrahydro-1H-pyrazolo[4,3-c]pyridine], where the note is “CatS IC50, Table 2, average of results obtained”, the IC50 worked out at 0.61 µM.

With `C[C@H]1COCCN1CCCn1nc(-c2ccc(Cl)c(C#Cc3ccc(CNCc4ccc(Cl)cc4)cc3)c2)c2c1CCN(S(C)(=O)=O)C2` [Example 182, 1-[4-({2-Chloro-5-[1-{3-[(3S)-3-methylmorpholin-4-yl]propyl}-5-(methylsulfonyl)-4,5,6,7-tetrahydro-1H-pyrazolo[4,3-c]pyridin-3-yl]phenyl}ethynyl)phenyl]-N-[(4-chlorophenyl)methyl]methanamine], the IC50 (CatS IC50) came out at 0.08 µM.

For the compound `C=CCN1CCc2cc(C#Cc3cc(-c4nn(CCCN5CCOCC5)c5c4CN(S(C)(=O)=O)CC5)ccc3Cl)ccc2C1` [Example 527, 6-({2-Chloro-5-[5-(methylsulfonyl)-1-(3-morpholin-4-ylpropyl)-4,5,6,7-tetrahydro-1H-pyrazolo[4,3-c]pyridin-3-yl]phenyl}ethynyl)-2-prop-2-en-1-yl-1,2,3,4-tetrahydroisoquinoline], the IC50 (CatS IC50) stood at 0.3 µM.

Turning to `CS(=O)(=O)N1CCc2c(c(-c3ccc(Cl)c(CCCNC4CCCC4)c3)nn2CCCN2CCC(N3CCCC3=O)CC2)C1` [Example 108, 1-[1-(3-{3-[4-Chloro-3-(3-cyclopentylamino-propyl)-phenyl]-5-methanesulfonyl-4,5,6,7-tetrahydro-pyrazolo[4,3-c]pyridin-1-yl}-propyl)-piperidin-4-yl]-pyrrolidin-2-one], the IC50 was 0.66 µM.

Consider `CC(C)(C)OC(=O)N1CCC(C2CCN(C[C@H](O)Cn3nc(-c4ccc(Cl)c(C#Cc5ccccn5)c4)c4c3CCN(S(C)(=O)=O)C4)CC2)CC1` [Example 234, 1,1-Dimethylethyl 1′-[(2S)-3-{3-[4-chloro-3-(pyridin-2-ylethynyl)phenyl]-5-(methylsulfonyl)-4,5,6,7-tetrahydro-1H-pyrazolo[4,3-c]pyridin-1-yl}-2-hydroxypropyl]-4,4′-bipiperidine-1-carboxylate], for which, where the note is “CatS IC50”, the IC50 came out at 0.28 µM.

In the case of `CS(=O)(=O)N1CCc2c(c(-c3ccc(Cl)c(C#Cc4ccc(Cl)cc4)c3)nn2CCCN2CCOCC2)C1` [Example 28, 3-[4-Chloro-3-(4-chloro-phenylethynyl)-phenyl]-5-methanesulfonyl-1-(3-morpholin-4-yl-propyl)-4,5,6,7-tetrahydro-1H-pyrazolo[4,3-c]pyridine], the IC50 (CatS IC50) came out at 0.2 µM.

Turning to `CS(=O)(=O)N1CCc2c(c(-c3ccc(Cl)c(C#Cc4ccc(CNC5CCc6ccccc65)cc4)c3)nn2CCCN2CCN(c3ccccn3)CC2)C1` (centres unmarked) [Example 470, N-({4-[(2-Chloro-5-{5-(methylsulfonyl)-1-[3-(4-pyridin-2-ylpiperazin-1-yl)propyl]-4,5,6,7-tetrahydro-1H-pyrazolo[4,3-c]pyridin-3-yl}phenyl)ethynyl]phenyl}methyl)-2,3-dihydro-1H-inden-1-amine], the IC50 was 0.05 µM.

With `CS(=O)(=O)N1CCc2c(c(-c3ccc(Cl)c(C#Cc4ccc5cc[nH]c5n4)c3)nn2CCCN2CCOCC2)C1` [Example 482, 3-[4-Chloro-3-(1H-pyrrolo[2,3-b]pyridin-6-ylethynyl)phenyl]-5-(methylsulfonyl)-1-(3-morpholin-4-ylpropyl)-4,5,6,7-tetrahydro-1H-pyrazolo[4,3-c]pyridine], the IC50 (CatS IC50) was 0.18 µM.

As to `CS(=O)(=O)N1CCc2c(c(-c3ccc(Cl)c(C#Cc4cccc(CNCc5ccccn5)c4)c3)nn2CCCN2CCOCC2)C1` [Example 187, 1-[3-({2-Chloro-5-[5-(methylsulfonyl)-1-(3-morpholin-4-ylpropyl)-4,5,6,7-tetrahydro-1H-pyrazolo[4,3-c]pyridin-3-yl]phenyl}ethynyl)phenyl]-N-(pyridin-2-ylmethyl)methanamine], the IC50 (CatS IC50) stood at 0.15 µM.

As to `CS(=O)(=O)NCc1ccc(C#Cc2cc(-c3nn(CCCN4CCOCC4)c4c3CN(S(C)(=O)=O)CC4)ccc2Cl)cc1` [Example 70, N-(4-{2-Chloro-5-[5-methanesulfonyl-1-(3-morpholin-4-yl-propyl)-4,5,6,7-tetrahydro-1H-pyrazolo[4,3-c]pyridin-3-yl]-phenylethynyl}-benzyl)-methanesulfonamide], the IC50 was 0.27 µM.

Regarding `CCNCc1cc(C#Cc2cc(-c3nn(CCCN4CCCCC4)c4c3CN(C(N)=O)CC4)ccc2Cl)ccc1Cl` [Example 167, 3-[4-Chloro-3-({4-chloro-3-[(ethylamino)methyl]phenyl}ethynyl)phenyl]-1-(3-piperidin-1-ylpropyl)-1,4,6,7-tetrahydro-5H-pyrazolo[4,3-c]pyridine-5-carboxamide], the IC50 was determined as 0.03 µM.

Regarding `CS(=O)(=O)N1CCc2c(c(-c3ccc(Cl)c(C#Cc4ccc5c(c4)CN[C@@H](C(=O)N4CCCC4)C5)c3)nn2CCCN2CCOCC2)C1` [Example 196, (3R)-7-({2-Chloro-5-[5-(methylsulfonyl)-1-(3-morpholin-4-ylpropyl)-4,5,6,7-tetrahydro-1H-pyrazolo[4,3-c]pyridin-3-yl]phenyl}ethynyl)-3-(pyrrolidin-1-ylcarbonyl)-1,2,3,4-tetrahydroisoquinoline], the IC50 (CatS IC50) is 0.65 µM.

As for `C[C@H]1COCCN1CCCn1nc(-c2ccc(Cl)c(C#Cc3ccc(Cl)c(CNC4CC4)c3)c2)c2c1CCN(C(=O)C(N)=O)C2` [Example 589, 2-(3-[4-Chloro-3-({4-chloro-3-[(cyclopropylamino)methyl]phenyl}ethynyl)phenyl]-1-{3-[(3S)-3-methylmorpholin-4-yl]propyl}-1,4,6,7-tetrahydro-5H-pyrazolo[4,3-c]pyridin-5-yl)-2-oxoacetamide], the IC50 (CatS IC50) is 0.03 µM.

For the compound `CS(=O)(=O)N1CCc2c(c(-c3ccc(Cl)c(C#CCc4ccccc4)c3)nn2C[C@@H](O)CN2CCC(C3CCNCC3)CC2)C1` [Example 474, (2S)-1-(4,4′-Bipiperidin-1-yl)-3-{3-[4-chloro-3-(3-phenylprop-1-yn-1-yl)phenyl]-5-(methylsulfonyl)-4,5,6,7-tetrahydro-1H-pyrazolo[4,3-c]pyridin-1-yl}propan-2-ol], the IC50 came out at 0.43 µM.

Consider `CS(=O)(=O)N1CCc2c(c(-c3ccc(Cl)c(CCc4ccc5c(c4)CNCC5)c3)nn2CCCN2CCCCC2)C1` [Example 228, 7-(2-{2-Chloro-5-[5-(methylsulfonyl)-1-(3-piperidin-1-ylpropyl)-4,5,6,7-tetrahydro-1H-pyrazolo[4,3-c]pyridin-3-yl]phenyl}ethyl)-1,2,3,4-tetrahydroisoquinoline], for which the IC50 was found to be 0.09 µM.

`CC(C)(C)OC(=O)NCc1cccc(C#Cc2cc(-c3nn(CCCN4CCOCC4)c4c3CN(S(C)(=O)=O)CC4)ccc2Cl)c1` [Example 376, 1,1-Dimethylethyl {[3-({2-chloro-5-[5-(methylsulfonyl)-1-(3-morpholin-4-ylpropyl)-4,5,6,7-tetrahydro-1H-pyrazolo[4,3-c]pyridin-3-yl]phenyl}ethynyl)phenyl]methyl}carbamate]: the IC50 was found to be 1.01 µM.

(Values after patent publication US20080200454A1, “CARBON-LINKED TETRAHYDRO-PYRAZOLO-PYRIDINE MODULATORS OF CATHEPSIN S” (priority 2007, published 2008).)
